Tests used:
[1] = cited from earlier work
CoxIV = CoxIV level in human MCF7 cells, Western blot (control protein); type: cell-based; conditions: MCF7 cells transfected with h-siMCJ 5 nM, harvested after 30 h; FIG. 10
Protocol: (§1) A human siMCJ has been tested in a human MCF7 cell line in vitro. […] Transfection methods included transecting human MCF7 cells transfected with h-siMCJ (5 nM) and after 30 h cells were harvested and MCJ expression was examined by Western blot analysis using an anti-human MCJ antibody. CoxIV (mitochondrial protein) and GAPDH were also examined as controls.

MCJ [2] = test: MCJ knockdown in human MCF7 cells, Western blot; type: cell-based; conditions: MCF7 cells transfected with h-siMCJ 5 nM, harvested after 30 h; FIG. 10
Protocol: as §1

wild-type mice = test: Acetaminophen (APAP) mouse model of drug-induced liver injury: liver histology and serum ALT; type: in vivo
Protocol: Alanine aminotransferase (ALT) aspartate aminotransferase (AST) and bilirubin were determined in serum samples using the Selectra Junior SpinLab 100 analyzer (Vital Scientific) and the SpinReact reagents according to manufacturer's protocols.
Paraffin-embedded liver samples were sectioned, dewaxed, and hydrated. Immunohistochemistry (IHC) was performed using an anti-MCJ antibody and nuclei were counter-stained with hematoxylin. Quantification of staining area of each sample was analyzed using the Frida software and represented as the % of the stained area relative to the total area (power field). Ten fields per sample were pictured and analyzed. For liver histology, liver sections from paraffin-embedded tissue were stained with hematoxylin and eoxin (H&E staining). Frida software was used for quantification.
(§2) siMCJ oligos (double strand RNA oligos, see for example, SEQ ID NO: 22) containing the designed sequence were synthesized for in vivo studies (Ambion invivo siRNA). As a delivery system Invivofectamine 3.0 (Life Technology) was used because it is claimed to obtain high efficiency of in vivo delivery of siRNA into hepatocytes. Following the recommendation of the manufacturer, 1.7 mg/Kg was used in combination with invivofectamine 3.0. Preparation of siRNA with the Invivofectamine was performed as recommended by the manufacturer. Mice were administered with a single i.v. dose of siMCJ/invivofectamine in 150 μl.

wild-type hepatocytes = test: Protection of wild-type hepatocytes from acetaminophen toxic injury by siRNA for MCJ; type: cell-based
MCJ [3] = test: MCJ expression in liver in vivo by Western blot; design: species or system mouse
Protocol: Analysis for MCJ expression in liver by Western blot analysis was performed as previously described (REF) using a specific anti-MCJ antibody. Expression of GAPDH was used as a control. Band intensities were quantified using the ImageJ software and normalized to the control (GAPDH).
as §2

Molecule: CC(=O)N[C@@H](CS)C(=O)O [NAC, N-acetylcysteine]
- hepatoprotective effect when given after 8 h ([1]; more than 8 h after uptake of acetaminophen): minimal to known
- time after uptake of acetaminophen within which administration has a hepatoprotective effect ([1]; patients with acute hepatic failure due to overdose of acetaminophen): ≤ 8 h

Molecule: h-siMCJ: human siRNA sequence gaagatttcaactectagat (as printed), double stranded RNA oligo (GAAGATTTCAACTCCTAGCTT; listed as DNA, chemistry not given here; listed as Homo sapiens)
- levels of CoxIV (another mitochondrial protein) (CoxIV): not affecting the levels of CoxIV
- MCJ protein expression (MCJ [2]): sufficient to knockdown MCJ protein expression

Molecule: siMCJ: double strand RNA oligos (see for example SEQ ID NO: 22, mouse siRNA sequence gcgagaggctagtcttatt), given i.v. with Invivofectamine 3.0 (GCGAGAGGCTAGTCTTATT; Invivofectamine 3.0 formulation, further chemistry not given here; listed as Mus musculus)
- areas of tissue damage in liver sections (H&E histology) (wild-type mice; siMCJ i.v. 20 h before acetaminophen 360 mg/Kg i.p., harvested 24 h after acetaminophen, FIG. 8B): almost not detected
- quantification of the damage area in the livers (wild-type mice; siMCJ i.v. 20 h before acetaminophen, n=5, p<0.05, FIG. 8C): protective effect
- levels of ALT in serum (wild-type mice; siMCJ i.v. 24 h after acetaminophen 360 mg/Kg i.p., harvested 48 h after acetaminophen, p<0.01 vs control mice, FIG. 9B): drastically lower
- protection from toxic injury caused by acetaminophen (wild-type hepatocytes): protected wild-type hepatocytes from the development of toxic injury
- levels of endogenous MCJ in the liver (MCJ [3]; 24 h after single i.v. dose of siMCJ 1.7 mg/Kg with invivofectamine, wild-type mice, FIG. 7): almost undetectable
- restoration of MCJ levels in liver (MCJ [3]; after 9 days of administration, single i.v. dose of siMCJ, FIG. 7): not a full restoration of MCJ levels
- levels of MCJ in the liver of APAP-mice (MCJ [3]; siMCJ i.v. 20 h before acetaminophen 360 mg/Kg i.p., harvested 24 h after acetaminophen, relative to APAP-mice without siMCJ, FIG. 8A): markedly reduced
- levels of MCJ in the liver (MCJ [3]; siMCJ i.v. 24 h after acetaminophen 360 mg/Kg i.p., harvested 48 h after acetaminophen, FIG. 9A): almost undetectable
- time for which levels of MCJ in liver remained very low (MCJ [3]; single i.v. dose of siMCJ 1.7 mg/Kg with invivofectamine, FIG. 7): at least 7 days

Reference: patent US10655126B2, “Methods and compositions to treat drug-induced diseases and conditions” (University of Vermont and State Agricultural College, priority 2015, dated 2020)
